According to ChEMBL document CHEMBL4020805, “Design, synthesis and SAR of new-di-substituted pyridopyrimidines as ATP-competitive dual PI3Kα/mTOR inhibitors” (Bioorg Med Chem Lett, 2017):
Converted amounts (≈) assume the structure as drawn.

Experiments:
physchem = details: buffer, pH 7.4
in vitro = details: CD-1, mouse, liver microsomes

Row | Compound | solubility at 1.5 h, 200 µM (physchem) | half-life at 1 µM (in vitro)
1 | CCC(=O)c1ccc(NC(=O)Nc2ccc(-c3nc(N4CCOCC4)c4cccnc4n3)cc2)cc1 | 11.4 µM (≈ 5.5 µg/mL) | > 60 min
2 | O=C(Nc1ccc(C(=O)CCl)cc1)Nc1ccc(-c2nc(N3CCOCC3)c3ncccc3n2)cc1 | < 2 µM | > 60 min
3 | CC(=O)c1ccc(NC(=O)Nc2ccc(-c3nc(N4CCOCC4)c4cccnc4n3)cc2)cc1 | < 2 µM | 59 min
4 | CCOC(=O)c1ccc(NC(=O)Nc2ccc(-c3nc(N4CCOCC4)c4cccnc4n3)cc2)cc1 | < 2 µM | > 60 min
5 | O=C(Nc1ccc(-c2nc(N3CCOCC3)c3cccnc3n2)cc1)Nc1cccc(CO)c1 | 21.8 µM (≈ 9.95 µg/mL) | 30 min
6 | O=C(Nc1ccccc1)Nc1ccc(-c2nc(N3CCOCC3)c3ncccc3n2)cc1 | < 2 µM | 22.3 min
7 | O=C(Nc1ccc(CCO)cc1)Nc1ccc(-c2nc(N3CCOCC3)c3ncccc3n2)cc1 | < 2 µM | > 60 min
8 | Oc1cccc(-c2nc(N3CCOCC3)c3oc4ncccc4c3n2)c1 [PI-103] | 3.4 µM (≈ 1.18 µg/mL) | 7.1 min

Continued, values first:

Row | solubility at 1.5 h, 200 µM (physchem) | half-life at 1 µM (in vitro) | Compound
9 | 4.2 µM (≈ 2.52 µg/mL) | 59.6 min | O=C(Nc1ccc(-c2nc(N3CCOCC3)c3cccnc3n2)cc1)Nc1ccc(S(=O)(=O)Nc2ccc(F)cc2)cc1
10 | < 2 µM | > 60 min | O=C(Nc1ccc(-c2nc(N3CCOCC3)c3ncccc3n2)cc1)Nc1ccc(S(=O)(=O)Nc2ccc(F)cc2)cc1
11 | < 2 µM | > 60 min | O=C(Nc1ccc(-c2nc(N3CCOCC3)c3ncccc3n2)cc1)Nc1ccc(S(=O)(=O)Nc2ccc(F)cc2F)cc1
12 | < 2 µM | 26.9 min | O=C(Nc1ccc(-c2nc(N3CCOCC3)c3cccnc3n2)cc1)Nc1ccc(S(=O)(=O)Nc2ccccc2)cc1
13 | < 2 µM | 60 min | O=C(Nc1ccc(-c2nc(N3CCOCC3)c3cccnc3n2)cc1)Nc1ccc(S(=O)(=O)Nc2ccc(F)cc2F)cc1
14 | < 2 µM | 16.6 min | O=C(Nc1ccc(-c2nc(N3CCOCC3)c3ncccc3n2)cc1)Nc1ccc(S(=O)(=O)Nc2ccccc2)cc1
